Where “and” joins values, the source holds several entries; their conditions need not be identical. Identical values can stand only once. Like-named read-outs stand apart in the source and are kept apart here.
What was measured:
[1] = cited from earlier work; for maximum plasma concentration by im route: in ng/mL
[2] = oral tablets, 60 mg dose, cited from earlier work
[3] = system: multi-drug resistant P. yoelii nigeriensis; assay: Blood schizontocidal activity in Swiss mice by rectal route; type: in vivo, Plasmodium yoelii nigeriensis; settings: for Cure-rate Day 30 (%) / Parasitaemia % Day 5 / Parasitaemia % Day 7: in oil; for Parasitaemia % Day 5 / Parasitaemia % Day 7: 8 mice
Experimental: Test Parasite: Multi-drug resistant Plasmodium yoeli nigerienes (Rodent malaria strian). The P. yoeli nigerienses is a multi-drug resistant strain which is resistant to high oral doses of chloroquine (128 mg/kg×4), amodiaquine (128 mg/kg×4), meperaine (128 mg/kg×4), mefloquine (128 mg/kg×4), quinine (400 mg/kg×4) and halofantrine (32 mg/kg×4). […]. […] For higher doses (15 and 20 mg/kg) the drug was given in divided doses by rectal route. The tail blood smears of the mice were examined periodically after Giemsa staining upto 30 days post-infections.
Drug is dissolved in sterile ground nut oil for adminisitration.

[4] = cited from earlier work
[5] = system: multi-drug resistant P. yoelii nigeriensis; assay: Blood schizontocidal activity in Swiss mice by oral route; type: in vivo, Plasmodium yoelii nigeriensis; settings: oral in oil, 30 mg/kg × 5, mice 25 ± 1 g
Experimental: Test Parasite: Multi-drug resistant Plasmodium yoeli nigerienes (Rodent malaria strian). The P. yoeli nigerienses is a multi-drug resistant strain which is resistant to high oral doses of chloroquine (128 mg/kg×4), amodiaquine (128 mg/kg×4), meperaine (128 mg/kg×4), mefloquine (128 mg/kg×4), quinine (400 mg/kg×4) and halofantrine (32 mg/kg×4). […].

[6] = cited from earlier work; remark: listed apart in the source
[7] = oral artesunate; 95/Cl 387-9410, range 79-1394; cited from earlier work
[8] = Safety in healthy mice; type: in vivo; settings: 30 mg/kg DHA × 5, 20 ± 1 g mice
[9] = cited from earlier work; remark: listed apart in the source
[10] = system: multi-drug resistant strain of P. yoelii nigeriensis; assay: Blood schizontocidal activity in Swiss mice and baby mice by intramuscular route; type: in vivo, Plasmodium yoelii nigeriensis; settings: day 30
Experimental: Test Parasite: Multi-drug resistant Plasmodium yoeli nigerienes (Rodent malaria strian). The P. yoeli nigerienses is a multi-drug resistant strain which is resistant to high oral doses of chloroquine (128 mg/kg×4), amodiaquine (128 mg/kg×4), meperaine (128 mg/kg×4), mefloquine (128 mg/kg×4), quinine (400 mg/kg×4) and halofantrine (32 mg/kg×4). […]. […] The tail blood smears of the mice were examined periodically after Giemsa staining upto 30 days post-infection.
Drug treatment was started on day 0 (ie day of infection). Mice showing negative blood slide upto day 30 were considered as cured.

[11] = system: malaria; settings: cited from earlier work
[12] = system: P. falcipurum; settings: rectal suppository; cited from earlier work
[13] = dog, in vivo; cited from earlier work
[14] = system: malaria; settings: cited from earlier work; remark: listed apart in the source
[15] = rabbit, in vivo; cited from earlier work
[16] = aqueous solution at pH 7-8; cited from earlier work
[17] = 5 mg/kg × 7, Swiss mice 20 ± 1 g
[18] = 20 mg/kg × 7, Swiss mice 20 ± 1 g
[19] = following oral artesunate administration

C[C@H]1[C@@H](O)O[C@@H]2O[C@@]3(C)CC[C@H]4[C@H](C)CC[C@@H]1[C@@]24OO3 [DHA, Dihydroartemisinin]
maximum plasma concentration by im route ([1]; rats): 1579±443 | Absorption 0-8 h ([1]; rats, single IM dose): 85.4±12.1% and 85.4% | Area under plasma concentration ([1]; rats, single IM dose): 2720 ng·h/mL | Elimination half life ([1]; rats, single IM dose): 266 ± 16.2 min | Mean absorption time ([1]; rats, single IM dose): 0.21 h | Time of maximum plasma Concentration ([1]; rats, single IM dose): 17.5 min | maximum plasma concentration ([1]; rats, single IM dose): 1579 ng/mL | peak plasma levels of dihydroartemisinin ([2]; four subjects): 0.26 to 0.71 µg/mL | tolerability ([2]; six cases): well tolerated in 2 subjects while 4 subjects experienced mild headache, nausea or vomiting | complete excretion by [2]: ≤ 6 h | elimination half-life [2]: 42.6 to 87 min | number of mice negative (-ve) Day 5 ([3]; 5 mg/kg × 7, of 8 mice): (8) 4-ve | number of mice negative (-ve) Day 7 ([3]; 5 mg/kg × 7, of 8 mice): (8) 4-ve | Cure-rate Day 30 (%) [3, 17]: 25% | Parasitaemia % Day 5 [3, 17]: 0.83 ± 1.31% | Parasitaemia % Day 7 [3, 17]: 1.12 ± 1.55% | Cure-rate Day 30 (%) [3, 18]: 87% | Parasitaemia % Day 5 [3, 18]: 0.0% | Parasitaemia % Day 7 [3, 18]: 0.0% | DHA activity AUC ([4]; im route): 3445 n Mlo l^−1 h | duration of activity due to DHA ([4]; im route): over 30 h | duration of effective level ([4]; oral dose): ≤ 10 h | Cure rate (%) Day 30 [5]: 100% | Elimination half life ([6]; oral, rats): 296 ± 43.8 min | area under plasma concentration time curve ([6]; oral, rats): 9615±56 ngh ml^−1 | peak plasma concentration of DHA [7]: 664 ng of DHA/ml | Safety in Healthy mice [8]: Safe 8/8 | DHA level compared to that of artesunate [9, 19]: 5 fold | maximum plasma level [9, 19]: 0.57 ± 0.18 µg/mL | Cure rate (%) ([10]; Expt. I, IM in oil, 5 mg/kg × 5, mice 20 ± 1 g): 100% (8/8) | Cure rate (%) ([10]; Expt. II, im in oil, 5 mg/kg × 5, mice 20 ± 1 g): 100% (8/8) | Cure rate (%) ([10]; Expt. II, im in oil, 10 mg/kg × 5, mice 20 ± 1 g): 100% (8/8) | Cure rate (%) ([10]; Expt. III, im in oil, 5 mg/kg × 5, baby mice 12 ± 1 g): 100% (9/9)

CCO[C@H]1O[C@@H]2O[C@@]3(C)CC[C@H]4[C@H](C)CC[C@@H]([C@H]1C)[C@@]24OO3 [arteether]
maximum plasma concentration by im route ([1]; rats): 160±12.4 | Distribution half life ([1]; rats, single IM dose): 20.4 ± 4.2 min | Mean absorption time ([1]; rats, single IM dose): 0.25 ± 0.06 h | Time of maximum plasma Concentration ([1]; rats, single IM dose): 41.4 ± 14.7 min | maximum plasma concentration ([1]; rats, single IM dose): 160.7 ± 12.4 ng/mL | Absorption 0-8 h ([1]; rats, single IM dose, listed as AE): 34.0±9.6% | Elimination half life ([6]; oral, rats): 107 ± 28.2 min | area under plasma concentration time curve ([6]; oral, rats): 298±68 ngh ml^−1 | maximum plasma concentration ([6]; oral, rats): 324 ± 10 ng/mL

CO[C@H]1O[C@@H]2O[C@@]3(C)CC[C@H]4[C@H](C)CC[C@@H]([C@H]1C)[C@@]24OO3 [artemether]
maximum plasma concentration by im route ([1]; rats): 692±234 | Absorption 0-8 h ([1]; rats, single IM dose): 54.2±25.9% and 54.3% | Area under plasma concentration ([1]; rats, single IM dose): 1010 ng·h/mL | Distribution half life ([1]; rats, single IM dose): 13.8 min | Elimination half life ([1]; rats, single IM dose): 107 ± 48 min | Mean absorption time ([1]; rats, single IM dose): 0.14 h | Time of maximum plasma Concentration ([1]; rats, single IM dose): 28.8 min | maximum plasma concentration ([1]; rats, single IM dose): 692 ng/mL | Elimination half life ([6]; oral, rats): 122 ± 10.8 min | area under plasma concentration time curve ([6]; oral, rats): 306±52 ngh ml^−1 | maximum plasma concentration ([6]; oral, rats): 381 ± 113 ng/mL

C[C@@H]1CC[C@H]2[C@@H](C)C(=O)O[C@@H]3O[C@@]4(C)CC[C@@H]1[C@]32OO4 [artemisinin]
cure rate ([11]; high doses upto 5.0 g): 55% | recovery from coma [12]: 24 (18-30) h

C[C@H]1[C@H](OC(=O)CCC(=O)O)O[C@@H]2O[C@@]3(C)CC[C@H]4[C@H](C)CC[C@@H]1[C@@]24OO3 [artesunate]
Distribution half life ([1]; rat, in vivo, im): 9 ± 3.6 min | Elimination half life ([1]; rat, in vivo, im): 32.4 ± 8.4 min | Time of maximum plasma Concentration ([1]; rat, in vivo): 15.0 ± 4.1 min | elimination half-life [13]: 27 min | Elimination half life ([6]; rat, in vivo, po): 80.4 ± 1560 min | area under plasma concentration time curve ([6]; rat, in vivo, po): 217±34 ngh ml^−1 | maximum plasma concentration ([6]; rat, in vivo, po): 208 ± 25 ng/mL | times more potent than artemisinin [14]: 3.2 times | cure rate ([11]; upto 750 mg): 70-90% | maximum plasma level ([9]; in vivo, po): 0.12 ± 0.11 µg/mL | elimination half-life [15]: 2 to 4 min

C[C@H]1[C@H](OC(=O)CCC(=O)[O-])O[C@@H]2O[C@@]3(C)CC[C@H]4[C@H](C)CC[C@@H]1[C@@]24OO3.[Na+] [sodium artesunate]
time of hydrolysis to DHA [16]: ≤ 1 h

Source: patent publication US6362219B1 (Council of Scientific and Industrial Research, priority 1999, dated 2002)
